Assay results as given in ChEMBL document CHEMBL4152286, “3'-O-Substituted 5-(perylen-3-ylethynyl)-2'-deoxyuridines as tick-borne encephalitis virus reproduction inhibitors” (Eur J Med Chem, 2018).
Converted amounts (≈) assume the structure as drawn.

Tests used:
[1] = Solubility of compound in 15% DMSO by UV-Vis spectrophotometric method; type: physicochemical
[2] = Cytotoxicity against PEK cells after 24 hrs by microscopic method; type: cell-based, Sus scrofa; conditions: pig
[3] = Solubility of compound in 5% DMSO by UV-Vis spectrophotometric method; type: physicochemical
[4] = tested on: Tick-borne encephalitis virus; experiment: Antiviral activity against TBEV Absettarov infected in PEK cells assessed as plaque reduction preincubated for 1 hr followed by overlaying with 1.26% methylcellulose and measured after 6 days by gentian violet staining-based assay; type: functional, organism-based
[5] = Cytotoxicity against PEK cells after 7 days by microscopic method; type: cell-based, Sus scrofa; conditions: pig

| Structure (SMILES) | solubility [1] [µM] | CC50 at 24 h [2] [µM] | solubility [3] [µM] | EC50 [4] [µM] | CC50 at 168 h [5] [µM] |
| --- | --- | --- | --- | --- | --- |
| O=c1[nH]c(=O)n([C@H]2C[C@H](O)[C@@H](CO)O2)cc1C#Cc1ccc2c3cccc4cccc(c5cccc1c52)c43 | 7.8 (≈ 3.92 µg/mL) | – | – | – | – |
| [N-]=[N+]=NCO[C@H]1C[C@H](n2cc(C#Cc3ccc4c5cccc6cccc(c7cccc3c74)c65)c(=O)[nH]c2=O)O[C@@H]1CO | – | > 50 | 680 (≈ 379 µg/mL) | 0.0054 | 35 |
| O=c1[nH]c(=O)n([C@H]2C[C@H](OCn3cc(CCO)nn3)[C@@H](CO)O2)cc1C#Cc1ccc2c3cccc4cccc(c5cccc1c52)c43 | – | > 50 | – | 0.05 | > 50 |
| O=c1[nH]c(=O)n([C@H]2C[C@H](OCn3cc(CCCCO)nn3)[C@@H](CO)O2)cc1C#Cc1ccc2c3cccc4cccc(c5cccc1c52)c43 | – | > 50 | – | 0.023 | > 50 |
| O=c1[nH]c(=O)n([C@H]2C[C@H](OCn3cc(CO)nn3)[C@@H](CO)O2)cc1C#Cc1ccc2c3cccc4cccc(c5cccc1c52)c43 | – | > 50 | – | 0.03 | > 50 |
| O=c1[nH]c(=O)n([C@H]2C[C@H](OCn3cc(CCCO)nn3)[C@@H](CO)O2)cc1C#Cc1ccc2c3cccc4cccc(c5cccc1c52)c43 | – | > 50 | – | 0.037 | > 50 |
| CSCO[C@H]1C[C@H](n2cc(C#Cc3ccc4c5cccc6cccc(c7cccc3c74)c65)c(=O)[nH]c2=O)O[C@@H]1CO | – | > 50 | 150 (≈ 84.4 µg/mL) | 0.0077 | > 50 |
